Assay results taken from patent publication US9938236B2, “Antiviral agents against HBV infection” (DREXEL UNIVERSITY, priority 2012, dated 2018).
pEC50: −log10 of the molar value.

Columns and labels:
HBV [1] = test: Antiviral activity in AML12HBV10 cells (HBV DNA dot-blot hybridization); type: cell-based; settings: Hepatitis B virus, Table 33, scaffold (XIV) drawing 940, 48 hours
Procedure: The antiviral efficacy of the compounds of the disclosure, as presented in Tables 21 through 39 were determined in AML12HBV10 cells. AML12HBV10 is an immortalized murine hepatocyte (AML12)-derived stable cell line that supports robust HBV replication in a tetracycline inducible manner (Xu et al.). The cells were seeded into 96 well plates at a density of 2×10^4 cells per well and cultured in DMEM/F12 media with 10% fetal bovine serum in the absence of tetracycline to allow pgRNA transcription and HBV DNA replication. One day after seeding, cells were left untreated or treated with a serial dilution of testing compounds, ranging from 50 μM to 0.39 μM, for 48 hours. Cells were then lysed by adding into each well of 100 μl lysis buffer containing 10 mM Tris-HCl (pH 7.6), 1 mM EDTA, 100 mM NaCl and 1% NP-40 and incubated at 37° C. for 30 minutes. Half amount (50 μl) of cell lysate from each well was combined with equal volume of denaturing solution containing 0.5N NaOH and 1.5M NaCl. After 5 minute incubation, 100 μl of neutralization solution (1M Tris-HCl, pH 7.4, 1.5M NaCl) was added into each well. The denatured cell lysates (totally 200 μl) were applied onto Nylon membrane using 96-well dot-blot manifold (Biorad). HBV DNA in the cell lysates were determined by dot-blot hybridization with alpha-^32P-UTP-labelled riboprobe specific for HBV minus strand DNA.

HBV [2] = test: Antiviral activity in HepDES19 cells (core-associated HBV DNA, Southern blot hybridization); type: cell-based; settings: Hepatitis B virus, 144 h, Table 33, scaffold (XIV) drawing 940, 6 days
Procedure: Two days after seeding, the cells were mock-treated or treated with a serial dilution of compounds of the disclosure, ranging from 10 μM to 0.018 μM, for 6 days in the absence of tetracycline. Upon the completion of treatment, cells were lysed by adding into each well of the 12-well plates 0.5 ml of lysis buffer containing 10 mM Tris-HCl (pH 8.0), 1 mM EDTA, 1% NP40 and 2% sucrose and incubating at 37° C. for 10 minutes. Cell debris and nuclei were removed by centrifugation and the supernatant was mixed with 130 μl of 35% polyethylene glycol (PEG) 8000 containing 1.5 M NaCl. After 1 hour incubation in ice, viral nucleocapsids were pelleted by centrifugation at 6,000×g for 5 min at 4° C., followed by 1 hour digestion at 37° C. in 400 μl of digestion buffer containing 0.5 mg/ml pronase (Calbiochem), 0.5% SDS, 150 mM NaCl, 25 mM Tris-HCl (pH 8.0) and 10 mM EDTA. The digestion mixture was extracted twice with phenol and DNA was precipitated with ethanol, dissolved in TE buffer (10 mM Tris-HC 1, pH 8.0; 0.1 mM EDTA). One half of the DNA sample from each well was resolved by electrophoresis into a 1.5% agarose gel. The gel was then subjected to denaturation in a solution containing 0.5 M NaOH and 1.5 M NaCl, followed by neutralization in a buffer containing 1 M Tris-HCl (pH7.4) and 1.5 M NaCl. DNA was then blotted onto Hybond-XL membrane (GE Health care) in 20×SSC buffer.

Compound	pEC50 (HBV [1])	pEC50 (HBV [2])
CC(C)[C@@H](C)NS(=O)(=O)c1ccc(Cl)c(C(=O)Nc2ccc(F)c(F)c2)c1 [XIV: A=H, B=Cl, C=H, D=H, (R)-2-chloro-N-(3,4-Difluorophenyl)-5-(N-(3-methylbutan-2-yl)sulfamoyl)benzamide]	> 6.00	
CC(C)[C@@H](C)NS(=O)(=O)c1cc(C(=O)Nc2ccc(F)c(F)c2)c(F)cc1F [XIV: A=H, B=F, C=H, D=F, (R)-N-(3,4-Difluorophenyl)-2,4-difluoro-5-(N-(3-methylbutan-2-yl)sulfamoyl)benzamide]	5.30 to 6.00	
Cc1ccc(S(=O)(=O)N[C@H](C)C(C)C)cc1C(=O)Nc1ccc(F)c(F)c1 [XIV: A=H, B=Me, C=H, D=H, (R)-N-(3,4-Difluorophenyl)-2-methyl-5-(N-(3-methylbutan-2-yl)sulfamoyl)benzamide]	> 6.00	> 6.00
COc1ccc(S(=O)(=O)N[C@H](C)C(C)C)cc1C(=O)Nc1ccc(F)c(F)c1 [XIV: A=H, B=OMe, C=H, D=H, (R)-N-(3,4-Difluorophenyl)-2-methoxy-5-(N-(3-methylbutan-2-yl)sulfamoyl)benzamide]	> 6.00	> 6.00
